Data: patent US10730826B2, “Ketone inhibitors of lysine gingipain” (CORTEXYME, INC., priority 2016, dated 2020)

target: lysine gingipain (Kgp) (Porphyromonas gingivalis (Bacteroides gingivalis), UniProt P72194); experiment: biochemical; type: biochemical; conditions: IC50 (nM) Kgp, Table 3
Procedure: The specific assay conditions were as follows. Buffer: pH=7.5, 100 mM Tris-HCl, 75 mM NaCl, 2.5 mM CaCl2), 10 mM cysteine, 1% DMSO after all additions. Protein: 0.1 nM Kgp, isolated from culture of Porphyromonas gingivalis, as described by Pike et al. (J. Biol. Chem. 1994, 269(1), 406), and Potempa and Nguyen (Current Protocols in Protein Science. 2007, 21.20.1-21.20.27). Fluorogenic substrate: 10 μM Z-His-Glu-Lys-MCA. Time=90 minutes. Temperature=37° C.
Further assays to measure the inhibitory activity of compounds of the present invention against Kgp and cathepsins B, H, K, L, and S were conducted as described in Example 66. The capacities of the compounds to inhibit the activity of cathepsins F, V, and Z were also measured.

Structure (SMILES)	IC50
[N-]=[N+]=Nc1cccc(C(=O)NC(CCCCN)C(=O)COc2c(F)cccc2F)c1 (stereo not shown) [Compound 12a]	0.08 nM
CSCC(=O)C(CCCCN)NC(=O)C1CCCC1 (stereo not shown) [Compound 16a]	> 100 nM
NCCCCC(NC(=O)C1CCCC1)C(=O)COCC(F)(F)F (stereo not shown) [Compound 17a]	> 100 nM
CN(C)CC(=O)C(CCCCN)NC(=O)C1CCCC1 (stereo not shown) [Compound 19a]	> 100 nM
CS(=O)(=O)CC(=O)C(CCCCN)NC(=O)C1CCCC1 (stereo not shown) [Compound 20a]	> 100 nM

same assay, conditions: IC50 (nM) Kgp, Table 4

Structure (SMILES)	IC50
NCCCCC(NC(=O)c1cccc(F)c1)C(=O)COc1c(F)cccc1F (stereo not shown) [Compound 26a]	0.09 nM
NCCCCC(NC(=O)c1cccc(OCCF)c1)C(=O)COc1c(F)cccc1F (stereo not shown) [Compound 27a]	0.27 nM
NCCCCC(NC(=O)c1cccc(F)n1)C(=O)COc1c(F)cccc1F (stereo not shown) [Compound 28a]	0.34 nM
NCCCCC(NC(=O)c1ccc(F)nc1)C(=O)COc1c(F)cccc1F (stereo not shown) [Compound 29a]	0.31 nM
NCCCCC(NC(=O)c1cccc(OCCCF)c1)C(=O)COc1c(F)cccc1F (stereo not shown) [Compound 30a]	0.21 nM
NCCCCC(NC(=O)c1ccnc(F)c1)C(=O)COc1c(F)cccc1F (stereo not shown) [Compound 31a]	0.15 nM
NCCCCC(NC(=O)c1cccnc1F)C(=O)COc1c(F)cccc1F (stereo not shown) [Compound 32a]	0.08 nM
[N-]=[N+]=Nc1cccc(C(=O)NC(CCCCN)C(=O)COc2c(F)cccc2F)c1 (stereo not shown) [Compound 33a]	0.08 nM
NCCCCC(NC(=O)c1cccnc1Br)C(=O)COc1c(F)cccc1F (stereo not shown) [Compound 34a]	0.13 nM
NCCCCC(NC(=O)c1ccc(F)cc1)C(=O)COc1c(F)cccc1F (stereo not shown) [Compound 35a]	0.1 nM
NCCCCC(NC(=O)c1ccccc1)C(=O)C(F)F (stereo not shown) [Compound 37a]	> 100 nM
NCCCCC(NC(=O)C1CCCC1)C(=O)Cn1cnccc1=O (stereo not shown) [Compound 39a]	> 100 nM
NCCCCC(NC(=O)C1CCCC1)C(=O)Cn1ccc(=O)nc1 (stereo not shown) [Compound 40a]	30.3 nM
NCCCCC(NC(=O)C1CCCC1)C(=O)Cn1cncc(F)c1=O (stereo not shown) [Compound 41a]	> 100 nM
NCCCCC(NC(=O)c1cccnc1)C(=O)COc1c(F)ccc(F)c1F (stereo not shown) [Compound 42a]	0.06 nM
NCCCCC(NC(=O)c1cccnc1)C(=O)COc1c(F)cccc1F (stereo not shown) [Compound 43a]	0.09 nM
CN(C)c1ccc(/N=N/c2ccc(C(=O)NCc3cc(F)c(OCC(=O)C(CCCCN)NC(=O)c4cccc(N=[N+]=[N-])c4)c(F)c3)cc2)cc1 (stereo not shown) [Compound 44a]	3.04 nM
COC(C)(C)C(=O)NC(CCCCN)C(=O)COc1c(F)cccc1F (stereo not shown) [Compound 48a]	0.07 nM
NCCCCC(NC(=O)C1CCCC1)C(=O)COc1ccon1 (stereo not shown) [Compound 49a]	0.23 nM
NCCCCC(NC(=O)c1ccncc1)C(=O)COc1c(F)ccc(F)c1F (stereo not shown) [Compound 52a]	0.06 nM
NCCCCC(NC(=O)c1cccnc1F)C(=O)COc1ccon1 (stereo not shown) [Compound 56a]	0.1 nM
COC(C)(C)C(=O)NC(CCCCN)C(=O)COc1ccon1 (stereo not shown) [Compound 57a]	0.09 nM
CS(C)(=O)=CC(=O)C(CCCCN)NC(=O)C1CCCC1 (stereo not shown) [Compound 58a]	4.66 nM
C[N+](C)(C)c1ccc(C(=O)NC(CCCCN)C(=O)COc2ccon2)cn1 (stereo not shown) [Compound 61a]	0.43 nM
CN(C)c1ccc(C(=O)NC(CCCCN)C(=O)COc2ccon2)cn1 (stereo not shown) [Compound 62a]	0.14 nM
COC(C)(C)C(=O)NC(CCCCN)C(=O)COc1cc(C)nc(C)c1 (stereo not shown) [Compound 63a]	0.09 nM
COC(C)(C)C(=O)NC(CCCCN)C(=O)COc1cccnc1 (stereo not shown) [Compound 64a]	0.4 nM
COC(C)(C)C(=O)NC(CCCCN)C(=O)COc1cnc(C)nc1 (stereo not shown) [Compound 65a]	0.16 nM

same assay, conditions: Kgp IC50 (nM), Table 5, probe compounds

Structure (SMILES)	IC50
CN(C)c1ccc(/N=N/c2ccc(C(=O)NCc3cc(F)c(OCC(=O)C(CCCCN)NC(=O)c4cccc(N=[N+]=[N-])c4)c(F)c3)cc2)cc1 (stereo not shown) [Compound 44a]	3 nM
